Data published in the NIST ThermoML archive (doi:10.1021/je900641w).
Numbers after ± are expanded uncertainties.

Details: 1000 kPa, Liquid, Coaxial cylinder method

Row | thermal conductivity (302.75 K) | thermal conductivity (332.54 K) | thermal conductivity (362.39 K) | thermal conductivity (392.16 K) | Compound
1 | 0.1433 ± 0.0064 W/m/K | 0.137 ± 0.0061 W/m/K | 0.1303 ± 0.0058 W/m/K | 0.1227 ± 0.0055 W/m/K | COCCOCCOCCOC [2,5,8,11-tetraoxadodecane]
2 | 0.1242 ± 0.0056 W/m/K | 0.1169 ± 0.0052 W/m/K | 0.1085 ± 0.0049 W/m/K | 0.099 ± 0.0045 W/m/K | COCC(C)OCC(C)OC (centres undefined) [2-methoxy-1-(2-methoxy-1-methylethoxy)propane]
3 | 0.1469 ± 0.0065 W/m/K | 0.1407 ± 0.0063 W/m/K | 0.1345 ± 0.006 W/m/K | 0.1274 ± 0.0057 W/m/K | COCCOCCOCCOCCOC [2,5,8,11,14-pentaoxapentadecane]
4 | 0.1461 ± 0.0065 W/m/K | 0.1324 ± 0.0059 W/m/K | 0.1205 ± 0.0054 W/m/K | 0.1076 ± 0.0048 W/m/K | COCCOCCOC [2,5,8-trioxanonane]
5 | 0.1605 ± 0.0071 W/m/K | 0.1452 ± 0.0064 W/m/K | 0.1317 ± 0.0059 W/m/K | 0.1183 ± 0.0053 W/m/K | COCCOC [1,2-dimethoxyethane]
6 | 0.1409 ± 0.0037 W/m/K | 0.1304 ± 0.0035 W/m/K | 0.1194 ± 0.0032 W/m/K | 0.1098 ± 0.003 W/m/K | c1ccccc1 [benzene]
